pIC50: −log10 of the molar value.

One assay deals with U87MG tumour cells. Kind of assay: Test of in vitro proliferation of U87MG tumour cells. It counts as cell-based. As to conditions: Homo sapiens, U-87 MG, 72 h, U87MG cells, 72 hours; read-out: U87 Cell Proliferation IC50. How it is done:
Model 4: Test of in vitro Proliferation of U87MG Tumour Cells.
The cell growth is determined with the reagent CellTiter 96 AQueous One Solution Cell Proliferation Assay from Promega (Cat. No. G3581).

Another assay relates to Akt-pS473 in U87MG cells. The following applies: Homo sapiens, U-87 MG; for IC50: read-out: U87 Akt-pS473 % Inhibition or IC50, nM (IC50), U87MG cells.
Assay [1] addresses mTOR (human recombinant aa mTOR 1360-2549) (Homo sapiens (Human), UniProt P42345). Kind of assay: mTOR enzymatic test by TR-FRET (phosphorylation of GFP-4EBP1). It counts as biochemical. The essentials:
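After a 30 min room-temperature kinase reaction, EDTA (10 mM final) and Tb-labelled phospho-Thr46 antibody (2 nM final) were added and incubated 60 min. Energy transfer from Tb to phosphorylated GFP-4EBP1 was read at 340 nm excitation, emissions 490/520 nm. Values derive from the 520/490 fluorescence ratio.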
(In TR-FRET formats the signal depends on donor and acceptor labels being close together.)

Another assay concerns the target PI3Kα (p110α/p85α) (Homo sapiens (Human), UniProt P42336). Kind of assay: PI3Kα enzymatic test by measuring the consumption of ATP. It counts as biochemical. In short, it runs like this:
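ATP consumption read out by KinaseGlo luminescence after a 90 min reaction of 1.7 μg/ml PI3Kα (p110α/p85α) with 2 μM ATP and 50 μM PIP2, buffered at pH 7.5 (Tris, 10 mM MgCl2, 1 mM EGTA, 0.03% Chaps, 1 mM DTT). Threefold dilution series over ≥10 000-fold range yield IC50.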

The mark [2] stands for this setting: read-out: U87 Akt-pS473 % Inhibition.

Chain of mTOR (human recombinant aa mTOR 1360-2549) (P42345 1360-2549): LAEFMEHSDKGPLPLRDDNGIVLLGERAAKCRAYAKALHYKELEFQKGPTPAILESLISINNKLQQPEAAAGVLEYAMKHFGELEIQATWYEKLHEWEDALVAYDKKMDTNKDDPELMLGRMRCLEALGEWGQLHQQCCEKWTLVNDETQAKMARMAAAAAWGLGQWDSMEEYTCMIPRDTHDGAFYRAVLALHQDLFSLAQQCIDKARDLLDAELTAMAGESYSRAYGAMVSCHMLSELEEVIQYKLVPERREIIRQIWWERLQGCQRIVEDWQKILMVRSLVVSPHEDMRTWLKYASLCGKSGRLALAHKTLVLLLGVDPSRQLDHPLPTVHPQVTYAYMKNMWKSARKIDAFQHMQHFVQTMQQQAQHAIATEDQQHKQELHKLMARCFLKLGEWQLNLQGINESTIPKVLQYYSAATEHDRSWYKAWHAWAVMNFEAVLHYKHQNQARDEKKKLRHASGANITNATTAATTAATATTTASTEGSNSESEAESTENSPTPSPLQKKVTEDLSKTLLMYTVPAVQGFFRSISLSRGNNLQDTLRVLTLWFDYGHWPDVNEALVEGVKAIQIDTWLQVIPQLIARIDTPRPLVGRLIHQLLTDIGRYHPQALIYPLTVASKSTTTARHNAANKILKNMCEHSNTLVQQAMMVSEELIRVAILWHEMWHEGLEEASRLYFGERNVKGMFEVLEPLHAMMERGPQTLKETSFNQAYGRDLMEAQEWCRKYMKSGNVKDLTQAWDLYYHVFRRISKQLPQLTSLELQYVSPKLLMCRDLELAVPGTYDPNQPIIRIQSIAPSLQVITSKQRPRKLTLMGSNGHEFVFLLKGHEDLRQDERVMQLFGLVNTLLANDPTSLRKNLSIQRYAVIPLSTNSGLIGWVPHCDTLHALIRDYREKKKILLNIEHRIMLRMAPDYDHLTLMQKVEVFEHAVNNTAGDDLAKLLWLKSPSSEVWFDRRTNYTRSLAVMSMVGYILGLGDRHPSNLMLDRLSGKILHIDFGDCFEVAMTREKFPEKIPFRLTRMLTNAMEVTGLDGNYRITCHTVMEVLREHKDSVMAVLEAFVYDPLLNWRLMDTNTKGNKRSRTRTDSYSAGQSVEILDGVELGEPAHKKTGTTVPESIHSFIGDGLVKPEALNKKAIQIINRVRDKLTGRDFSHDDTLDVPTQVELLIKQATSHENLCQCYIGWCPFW
Chain of PI3Kα (p110α/p85α) (P42336 whole entry): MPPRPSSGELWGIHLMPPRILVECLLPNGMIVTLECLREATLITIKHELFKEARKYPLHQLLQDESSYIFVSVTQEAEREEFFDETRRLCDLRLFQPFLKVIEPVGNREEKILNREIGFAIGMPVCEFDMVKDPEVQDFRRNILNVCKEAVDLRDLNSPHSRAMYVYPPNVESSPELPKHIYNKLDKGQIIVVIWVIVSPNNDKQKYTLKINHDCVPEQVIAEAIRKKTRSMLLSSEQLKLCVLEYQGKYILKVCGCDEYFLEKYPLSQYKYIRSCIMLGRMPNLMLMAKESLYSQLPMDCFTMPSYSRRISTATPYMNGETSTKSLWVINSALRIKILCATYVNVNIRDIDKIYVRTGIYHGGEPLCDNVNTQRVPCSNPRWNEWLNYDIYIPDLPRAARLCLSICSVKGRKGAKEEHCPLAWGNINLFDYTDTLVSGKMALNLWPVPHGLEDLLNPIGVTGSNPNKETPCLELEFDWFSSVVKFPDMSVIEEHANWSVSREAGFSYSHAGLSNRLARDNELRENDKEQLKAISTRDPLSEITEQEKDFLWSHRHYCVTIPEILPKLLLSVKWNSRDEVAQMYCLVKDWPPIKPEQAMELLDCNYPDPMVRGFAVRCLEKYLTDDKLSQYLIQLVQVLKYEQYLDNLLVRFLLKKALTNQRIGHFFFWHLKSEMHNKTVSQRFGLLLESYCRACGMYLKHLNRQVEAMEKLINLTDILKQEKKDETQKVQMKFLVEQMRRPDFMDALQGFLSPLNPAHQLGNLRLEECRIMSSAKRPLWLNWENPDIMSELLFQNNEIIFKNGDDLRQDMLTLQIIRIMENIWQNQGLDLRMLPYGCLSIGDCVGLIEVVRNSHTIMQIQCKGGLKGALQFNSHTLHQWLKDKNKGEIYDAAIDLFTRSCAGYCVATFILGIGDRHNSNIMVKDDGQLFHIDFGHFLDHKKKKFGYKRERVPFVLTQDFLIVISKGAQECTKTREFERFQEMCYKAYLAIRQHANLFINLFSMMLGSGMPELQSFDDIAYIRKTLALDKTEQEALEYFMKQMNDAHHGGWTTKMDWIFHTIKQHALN
Chain of PI3Kα (p110α/p85α) (P27986 whole entry partner): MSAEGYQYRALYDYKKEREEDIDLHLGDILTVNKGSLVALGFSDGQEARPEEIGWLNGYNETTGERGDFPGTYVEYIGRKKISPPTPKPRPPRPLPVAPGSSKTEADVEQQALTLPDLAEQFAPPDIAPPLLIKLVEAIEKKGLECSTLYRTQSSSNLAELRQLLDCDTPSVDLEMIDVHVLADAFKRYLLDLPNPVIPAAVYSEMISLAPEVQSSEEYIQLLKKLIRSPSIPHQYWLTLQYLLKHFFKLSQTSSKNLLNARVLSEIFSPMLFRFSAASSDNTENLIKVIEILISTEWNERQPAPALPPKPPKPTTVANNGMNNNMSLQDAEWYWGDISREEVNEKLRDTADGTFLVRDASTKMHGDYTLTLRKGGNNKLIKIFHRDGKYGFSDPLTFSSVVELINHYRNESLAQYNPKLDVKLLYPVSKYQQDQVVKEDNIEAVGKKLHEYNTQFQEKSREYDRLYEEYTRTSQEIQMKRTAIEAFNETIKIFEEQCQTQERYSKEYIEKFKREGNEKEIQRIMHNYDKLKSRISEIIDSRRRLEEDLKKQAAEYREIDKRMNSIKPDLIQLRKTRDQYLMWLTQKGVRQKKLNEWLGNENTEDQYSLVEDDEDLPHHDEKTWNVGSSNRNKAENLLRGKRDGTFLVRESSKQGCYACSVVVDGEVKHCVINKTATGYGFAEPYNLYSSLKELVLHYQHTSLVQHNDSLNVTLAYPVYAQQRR

Turning to `CCN1CC(C)(C)Oc2nc(N3CCOC[C@@H]3C)nc(-c3ccc(NC(=O)NC)c(F)c3)c2C1=O` [Example 2, 1-{4-[6-Ethyl-8,8-dimethyl-2-((S)-3-methylmorpholin-4-yl)-5-oxo-5,6,7,8-tetrahydro-9-oxa-1,3,6-triazabenzocyclohepten-4-yl]-2-fluorophenyl}-3-methylurea], the pIC50 is 6.85 with U87MG tumour cells and 7.66 in assay [1]. For the same molecule, in the assay on Akt-pS473 in U87MG cells, the 50% inhibitory concentration (IC50) came out at 31 nM. Moreover, on PI3Kα (p110α/p85α), the “PI3Ka IC50” value worked out at 547 nM.

As to `CCNC(=O)Nc1ccc(-c2nc(N3CC4CCC(C3)O4)nc3c2C(=O)N(CCC(=O)O)CC(C)(C)O3)cc1` [Example 7, 3-[4-[4-(3-Ethylureido)phenyl]-8,8-dimethyl-2-(8-oxa-3-azabicyclo[3.2.1]oct-3-yl)-5-oxo-7,8-dihydro-5H-9-oxa-1,3,6-triazabenzocyclohepten-6-yl]propionic acid], the pIC50 in the assay on U87MG tumour cells is less than 5.00; in assay [1] it was 7.77. The IC50 in the assay on Akt-pS473 in U87MG cells is greater than 3000 nM. In addition, the “PI3Ka IC50” value on PI3Kα (p110α/p85α) is listed as greater than 10000 nM.

`CCN1CC(C)(C)Oc2nc(N3CC4CCC(C3)O4)nc(-c3ccc(NC(=O)NCCCO)cc3)c2C1=O` [Example 119, 1-{4-[6-Ethyl-8,8-dimethyl-2-(8-oxa-3-azabicyclo[3.2.1]oct-3-yl)-5-oxo-5,6,7,8-tetrahydro-9-oxa-1,3,6-triazabenzocyclohepten-4-yl]phenyl}-3-(3-hydroxypropyl)urea]: the pIC50 was less than 5.52 with U87MG tumour cells and 6.98 in assay [1]. In the assay on Akt-pS473 in U87MG cells, the IC50 was found to be 1060 nM. The “PI3Ka IC50” value at PI3Kα (p110α/p85α) is recorded as greater than 10000 nM.

On to `CCN1CC(C)(C)Oc2nc(N3CCOC[C@@H]3C)nc(-c3ccc(NC(=O)Nc4ccc(F)cc4F)cc3)c2C1=O` [Example 191, 1-(2,4-Difluorophenyl)-3-{4-[6-ethyl-8,8-dimethyl-2-((S)-3-methylmorpholin-4-yl)-5-oxo-5,6,7,8-tetrahydro-9-oxa-1,3,6-triazabenzocyclohepten-4-yl]phenyl}urea], for which the results for the pIC50 (with U87MG tumour cells; in assay [1]) were 6.98 and 7.62, respectively. Further, the IC50 with Akt-pS473 in U87MG cells stood at 26 nM. Moreover, the “PI3Ka IC50” value on PI3Kα (p110α/p85α) was found to be 570 nM.

`CCN1CC(C)(C)Oc2nc(N3CC4CCC(C3)O4)nc(-c3ccc(NC(=O)Nc4cn(C)cn4)c(F)c3)c2C1=O` [Example 194, 1-{4-[6-Ethyl-8,8-dimethyl-2-(8-oxa-3-azabicyclo[3.2.1]oct-3-yl)-5-oxo-5,6,7,8-tetrahydro-9-oxa-1,3,6-triazabenzocyclohepten-4-yl]-2-fluorophenyl}-3-(1-methyl-1H-imidazol-4-yl)urea]: the pIC50 is 5.67 in the assay on U87MG tumour cells and 7.57 in assay [1]. Besides, the inhibition at 3 µM with Akt-pS473 in U87MG cells (setting [2]) came out at 62%. For the same molecule, the “PI3Ka IC50” value on PI3Kα (p110α/p85α) was 1230 nM.

As for `CCN1CC(C)(C)Oc2nc(N3C[C@@H]4C[C@H]3CO4)nc(-c3ccc(NC(=O)NC)c(F)c3)c2C1=O` [Example 206, 1-[4-((1S,4S)-6-Ethyl-8,8-dimethyl-2-2-oxa-5-azabicyclo[2.2.1]hept-5-yl-5-oxo-5,6,7,8-tetrahydro-9-oxa-1,3,6-triazabenzocyclohepten-4-yl)-2-fluorophenyl]-3-methylurea], the pIC50 with U87MG tumour cells is 5.87; in assay [1] it was 6.84. The inhibition at 1 µM in the assay on Akt-pS473 in U87MG cells (setting [2]) amounted to 87%. The “PI3Ka IC50” value at PI3Kα (p110α/p85α) is on record as greater than 10000 nM.

In the case of `CCN1CC(C)(C)Oc2nc(N3CC4CCC(C3)O4)nc(-c3ccc(NC(=O)OCCO)cc3F)c2C1=O` [Example 246, {4-[6-Ethyl-8,8-dimethyl-2-(8-oxa-3-azabicyclo[3.2.1]oct-3-yl)-5-oxo-5,6,7,8-tetrahydro-9-oxa-1,3,6-triazabenzocyclohepten-4-yl]-3-fluorophenyl}carbamic acid 2-hydroxyethyl ester], the results for the pIC50 (in the assay with U87MG tumour cells; in assay [1]) were 5.80 and 7.09, respectively. Further, the IC50 in the assay on Akt-pS473 in U87MG cells amounted to 240 nM. The “PI3Ka IC50” value at PI3Kα (p110α/p85α) is given as greater than 10000 nM.

Regarding `CCN1CC(C)(C)Oc2nc(N3CC4CCC(C3)O4)nc(-c3ccc(NC(=O)Nc4cc(OC)c(F)cc4F)cc3)c2C1=O` [Example 155, 1-(2,4-Difluoro-5-methoxyphenyl)-3-{4-[6-ethyl-8,8-dimethyl-2-(8-oxa-3-azabicyclo[3.2.1]oct-3-yl)-5-oxo-5,6,7,8-tetrahydro-9-oxa-1,3,6-triazabenzocyclohepten-4-yl]phenyl}urea], the figures for the pIC50 (with U87MG tumour cells; in assay [1]) were 6.85 and 7.10, respectively. Also, in the assay on Akt-pS473 in U87MG cells, the IC50 stood at 59 nM. Moreover, the “PI3Ka IC50” value at PI3Kα (p110α/p85α) was greater than 10000 nM.

`CCN1CC(C)(C)Oc2nc(N3CC4CCC(C3)O4)nc(-c3ccc(NC(=O)Nc4cccnc4)c(F)c3)c2C1=O` [Example 223, 1-{4-[6-Ethyl-8,8-dimethyl-2-(8-oxa-3-azabicyclo[3.2.1]oct-3-yl)-5-oxo-5,6,7,8-tetrahydro-9-oxa-1,3,6-triazabenzocyclohepten-4-yl]-2-fluorophenyl}-3-pyridin-3-ylurea]: the values for the pIC50 (in the assay with U87MG tumour cells; in assay [1]) were 7.21 and 7.70, respectively. In the assay with Akt-pS473 in U87MG cells, the IC50 amounted to 4 nM. In addition, on PI3Kα (p110α/p85α), the “PI3Ka IC50” value stood at 2070 nM.

As to `CCN1CC(C)(C)Oc2nc(N3CCOC[C@@H]3C)nc(-c3ccc(NC(=O)Nc4ccc(N5CCN(C)CC5)nc4)c(F)c3)c2C1=O` [Example 171, 1-{4-[6-Ethyl-8,8-dimethyl-2-((S)-3-methylmorpholin-4-yl)-5-oxo-5,6,7,8-tetrahydro-9-oxa-1,3,6-triazabenzocyclohepten-4-yl]-2-fluorophenyl}-3-[6-(4-methylpiperazin-1-yl)pyridin-3-yl]urea], the pIC50 with U87MG tumour cells was 7.04; in assay [1] it was 7.43. Also, the IC50 in the assay with Akt-pS473 in U87MG cells came out at 41 nM. For the same molecule, the “PI3Ka IC50” value at PI3Kα (p110α/p85α) is given as 308 nM.

As for `CCN1CC(C)(C)Oc2nc(N3CC4CCC(C3)O4)nc(-c3ccc(NC(=O)Nc4ccc(OC5CCN(C)CC5)nc4)c(F)c3)c2C1=O` [Example 22, 1-{4-[6-ethyl-8,8-dimethyl-2-(8-oxa-3-azabicyclo[3.2.1]oct-3-yl)-5-oxo-5,6,7,8-tetrahydro-9-oxa-1,3,6-triazabenzocyclohepten-4-yl]-2-fluorophenyl}-3-[6-(1-methylpiperidin-4-yloxy)pyridin-3-yl]urea], the pIC50 in the assay with U87MG tumour cells is 7.17; in assay [1] it was 7.12. Further, the IC50 in the assay with Akt-pS473 in U87MG cells turned out to be 28 nM. At PI3Kα (p110α/p85α), the “PI3Ka IC50” value stood at 3070 nM.

Turning to `CCN1CC(C)(C)Oc2nc(N3C4CCC3COC4)nc(-c3ccc(NC(=O)Nc4cccnc4)c(F)c3)c2C1=O` [Example 50, 1-{4-[6-Ethyl-8,8-dimethyl-2-(3-oxa-8-azabicyclo[3.2.1]oct-8-yl)-5-oxo-5,6,7,8-tetrahydro-9-oxa-1,3,6-triazabenzocyclohepten-4-yl]-2-fluorophenyl}-3-pyridin-3-ylurea], the pIC50 was 7.40 in the assay with U87MG tumour cells and 7.41 in assay [1]. In the assay with Akt-pS473 in U87MG cells, the half-inhibitory concentration (IC50) was found to be 7 nM. The “PI3Ka IC50” value at PI3Kα (p110α/p85α) came out at 2870 nM.

In the case of `CCN1CC(C)(C)Oc2nc(N3CCOC[C@@H]3C)nc(-c3ccc(NC(=O)Nc4nnc(C)o4)c(F)c3)c2C1=O` [Example 170, 1-{4-[6-Ethyl-8,8-dimethyl-2-((S)-3-methylmorpholin-4-yl)-5-oxo-5,6,7,8-tetrahydro-9-oxa-1,3,6-triazabenzocyclohepten-4-yl]-2-fluorophenyl}-3-(5-methyl-[1,3,4]oxadiazol-2-yl)urea], the pIC50 with U87MG tumour cells is 6.25; in assay [1], 6.97. Further, the IC50 in the assay with Akt-pS473 in U87MG cells was 94 nM. Moreover, the “PI3Ka IC50” value at PI3Kα (p110α/p85α) was 824 nM.

Regarding `CCN1CC(C)(C)Oc2nc(N3CC4CCC(C3)O4)nc(-c3ccc(NC(=O)Nc4ccccn4)c(F)c3)c2C1=O` [Example 158, 1-{4-[6-Ethyl-8,8-dimethyl-2-(8-oxa-3-azabicyclo[3.2.1]oct-3-yl)-5-oxo-5,6,7,8-tetrahydro-9-oxa-1,3,6-triazabenzocyclohepten-4-yl]-2-fluorophenyl}-3-pyridin-2-ylurea], the pIC50 in the assay on U87MG tumour cells was 5.77; in assay [1], 7.19. Also, in the assay with Akt-pS473 in U87MG cells, the IC50 turned out to be 1600 nM. In addition, the “PI3Ka IC50” value at PI3Kα (p110α/p85α) is recorded as greater than 10000 nM.

As to `CCN1CC(C)(C)Oc2nc(N3CCOC[C@@H]3C)nc(-c3ccc(NC(=O)Nc4ccnc(C)c4)c(F)c3)c2C1=O` [Example 199, 1-{4-[6-Ethyl-8,8-dimethyl-2-((S)-3-methylmorpholin-4-yl)-5-oxo-5,6,7,8-tetrahydro-9-oxa-1,3,6-triazabenzocyclohepten-4-yl]-2-fluorophenyl}-3-(2-methylpyridin-4-yl)urea], the pIC50 in the assay with U87MG tumour cells is 7.49; in assay [1] it was 7.41. Moreover, the IC50 in the assay with Akt-pS473 in U87MG cells was 10 nM. The “PI3Ka IC50” value at PI3Kα (p110α/p85α) is 174 nM.

As to `CCN1CC(C)(C)Oc2nc(N3CC4CCC(C3)O4)nc(-c3ccc(NC(=O)NCCF)cc3)c2C1=O` [Example 123, 1-{4-[6-Ethyl-8,8-dimethyl-2-(8-oxa-3-azabicyclo[3.2.1]oct-3-yl)-5-oxo-5,6,7,8-tetrahydro-9-oxa-1,3,6-triazabenzocyclohepten-4-yl]phenyl}-3-(2-fluoroethyl)urea], the pIC50 in the assay with U87MG tumour cells is 6.66; in assay [1], 7.66. Besides, the IC50 with Akt-pS473 in U87MG cells came out at 150 nM. In addition, the “PI3Ka IC50” value at PI3Kα (p110α/p85α) is 3627 nM.

The term IC50 denotes the concentration needed to halve the response being measured. One may read the inhibition as the relative decrease from the control value, in per cent.

The values above are taken from patent US9120812B2, “Pyrimidooxazocine derivatives as mTOR-inhibitors” (SANOFI, priority 2012, dated 2015).
